Measurements reported in the NIST ThermoML archive (doi:10.1016/j.jct.2013.04.010).
Values joined by “and” are separate entries in the source; they are usually repeats but may differ in a detail not shown here. Equal entries are not always repeated.

Conditions: Liquid, Other PVT measurement

CCCCC(CC)COC(=O)c1ccccc1C(=O)OCC(CC)CCCC (stereo not given) [bis(2-ethylhexyl) 1,2-benzenedicarboxylate]
Conditions | mass density
373.29 K, 3800 kPa | 921 kg/m3
373.29 K, 7600 kPa | 924 kg/m3
373.29 K, 12200 kPa | 928 kg/m3
373.29 K, 15900 kPa | 931 kg/m3
373.29 K, 18100 kPa | 933 kg/m3
373.29 K, 22300 kPa | 936 kg/m3
373.29 K, 28300 kPa | 940 kg/m3
373.29 K, 34800 kPa | 945 kg/m3
373.29 K, 42200 kPa | 950 kg/m3
373.29 K, 48900 kPa | 954 kg/m3
373.29 K, 56100 kPa | 959 kg/m3
373.29 K, 69500 kPa | 967 kg/m3
373.29 K, 83700 kPa | 974 kg/m3
373.29 K, 104200 kPa | 984 kg/m3
373.29 K, 125400 kPa | 994 kg/m3
373.29 K, 138900 kPa | 1001 kg/m3
373.29 K, 152900 kPa | 1007 kg/m3
373.29 K, 174400 kPa | 1015 kg/m3
373.29 K, 208300 kPa | 1029 kg/m3
373.29 K, 240000 kPa | 1041 kg/m3
373.29 K, 262100 kPa | 1046 kg/m3
423.53 K, 4200 kPa | 878 kg/m3
423.53 K, 7900 kPa | 885 kg/m3
423.53 K, 11100 kPa | 890 kg/m3
423.53 K, 14500 kPa | 895 kg/m3
423.53 K, 18000 kPa | 898 kg/m3
423.53 K, 21200 kPa | 901 kg/m3
423.53 K, 27800 kPa | 908 kg/m3
423.53 K, 35200 kPa | 914 kg/m3
423.53 K, 42100 kPa | 918 kg/m3
423.53 K, 49200 kPa | 924 kg/m3
423.53 K, 55700 kPa | 930 kg/m3
423.53 K, 70700 kPa | 939 kg/m3
423.53 K, 83700 kPa | 948 kg/m3
423.53 K, 104200 kPa | 960 kg/m3
423.53 K, 125400 kPa | 970 kg/m3
423.53 K, 139900 kPa | 977 kg/m3
423.53 K, 153700 kPa | 983 kg/m3
423.53 K, 173400 kPa | 992 kg/m3
423.53 K, 207100 kPa | 1006 kg/m3
423.53 K, 239400 kPa | 1018 kg/m3
423.53 K, 263800 kPa | 1028 kg/m3
476.2 K, 5500 kPa | 847 kg/m3
476.2 K, 9400 kPa | 853 kg/m3
476.2 K, 9500 kPa | 853 kg/m3
476.2 K, 15200 kPa | 861 kg/m3
476.2 K, 15700 kPa | 861 kg/m3
476.2 K, 26800 kPa | 874 kg/m3
476.2 K, 27300 kPa | 874 kg/m3
476.2 K, 27500 kPa | 874 kg/m3
476.2 K, 46700 kPa | 894 kg/m3
476.2 K, 46900 kPa | 894 kg/m3
476.2 K, 59800 kPa | 905 kg/m3
476.2 K, 70700 kPa | 914 kg/m3
476.2 K, 71500 kPa | 913 kg/m3
476.2 K, 95700 kPa | 931 kg/m3
476.2 K, 96400 kPa | 931 kg/m3
476.2 K, 114200 kPa | 942 kg/m3
476.2 K, 114800 kPa | 942 kg/m3
476.2 K, 139800 kPa | 959 kg/m3
476.2 K, 140400 kPa | 958 kg/m3
476.2 K, 176200 kPa | 975 kg/m3
476.2 K, 206900 kPa | 990 kg/m3
476.2 K, 240200 kPa | 1002 kg/m3
476.2 K, 269000 kPa | 1013 kg/m3
491.86 K, 3900 kPa | 830 kg/m3 and 831 kg/m3
491.86 K, 4100 kPa | 830 kg/m3
491.86 K, 9900 kPa | 840 kg/m3
491.86 K, 10500 kPa | 839 kg/m3
491.86 K, 22800 kPa | 856 kg/m3
491.86 K, 23300 kPa | 856 kg/m3
491.86 K, 37200 kPa | 870 kg/m3
491.86 K, 37500 kPa | 870 kg/m3
491.86 K, 50700 kPa | 886 kg/m3
491.86 K, 51100 kPa | 885 kg/m3
491.86 K, 71500 kPa | 902 kg/m3
491.86 K, 71900 kPa | 902 kg/m3
491.86 K, 94800 kPa | 918 kg/m3
491.86 K, 95000 kPa | 918 kg/m3
491.86 K, 121700 kPa | 934 kg/m3
491.86 K, 121800 kPa | 934 kg/m3
491.86 K, 145400 kPa | 948 kg/m3
491.86 K, 145600 kPa | 948 kg/m3
491.86 K, 177200 kPa | 964 kg/m3
491.86 K, 177400 kPa | 964 kg/m3
491.86 K, 204300 kPa | 977 kg/m3
491.86 K, 206000 kPa | 978 kg/m3
491.86 K, 229400 kPa | 989 kg/m3
491.86 K, 230800 kPa | 988 kg/m3
491.86 K, 253700 kPa | 998 kg/m3
491.86 K, 258100 kPa | 1000 kg/m3
523.6 K, 5700 kPa | 811 kg/m3
523.6 K, 9200 kPa | 817 kg/m3
523.6 K, 16100 kPa | 827 kg/m3
523.6 K, 21600 kPa | 835 kg/m3
523.6 K, 27300 kPa | 842 kg/m3
523.6 K, 27500 kPa | 842 kg/m3
523.6 K, 35500 kPa | 851 kg/m3
523.6 K, 35700 kPa | 851 kg/m3
523.6 K, 44200 kPa | 860 kg/m3
523.6 K, 44300 kPa | 860 kg/m3
523.6 K, 44400 kPa | 860 kg/m3
523.6 K, 44600 kPa | 860 kg/m3
523.6 K, 55800 kPa | 871 kg/m3
523.6 K, 56300 kPa | 871 kg/m3
523.6 K, 68500 kPa | 882 kg/m3
523.6 K, 68900 kPa | 882 kg/m3
523.6 K, 82200 kPa | 893 kg/m3
523.6 K, 82500 kPa | 892 kg/m3
523.6 K, 97000 kPa | 903 kg/m3
523.6 K, 97300 kPa | 903 kg/m3
523.6 K, 117000 kPa | 916 kg/m3
523.6 K, 117400 kPa | 916 kg/m3
523.6 K, 117700 kPa | 916 kg/m3
523.6 K, 155700 kPa | 939 kg/m3
523.6 K, 156100 kPa | 939 kg/m3
523.6 K, 181200 kPa | 952 kg/m3
523.6 K, 181500 kPa | 952 kg/m3
523.6 K, 209500 kPa | 964 kg/m3
523.6 K, 209900 kPa | 964 kg/m3
523.6 K, 233900 kPa | 974 kg/m3
523.6 K, 234000 kPa | 974 kg/m3
523.6 K, 253400 kPa | 983 kg/m3
523.6 K, 253600 kPa | 983 kg/m3
523.6 K, 263500 kPa | 987 kg/m3
